Reference: ChEMBL document CHEMBL4304824, “Austalides V and W, new meroterpenoids from the fungus Aspergillus ustus and their antitumor activities” (Bioorg Med Chem Lett, 2019)
Activity calls are given as the source filed them. The calls are words filed in the database; no cut-off is given here.

Key:
LNCaP [1] = test: Antiproliferation activity against human LNCAP cells assessed as reduction in cell density incubated for 72 hrs by microscopic method; type: functional, cell-based
DU-145 = test: Cytotoxicity against human DU145 cells assessed as reduction in cell viability incubated for 48 hrs by xCELLigence RTCA analysis; type: functional, cell-based; conditions: DU-145, 48 h
[2] = target: Proto-oncogene tyrosine-protein kinase Src (Homo sapiens) (UniProt P12931); test: Inhibition of c-Src phosphorylation at Y419 residue in human LNCAP cells at 50 uM incubated for 48 hrs by chemiluminescence reagent based autoradiography; type: cell-based
LNCaP [3] = test: Inhibition of Akt/mTOR pathway in human LNCAP cells assessed as reduction in p70S6 kinase phosphorylation at T421/S424 residues at 50 uM incubated for 48 hrs by chemiluminescence reagent based autoradiography; type: cell-based
LNCaP [4] = test: Inhibition of Akt/mTOR pathway in human LNCAP cells assessed as reduction in PRAS40 phosphorylation at T246 residue at 50 uM incubated for 48 hrs by chemiluminescence reagent based autoradiography; type: cell-based
T-24 = test: Cytotoxicity against human T24 cells assessed as reduction in cell viability incubated for 48 hrs by xCELLigence RTCA analysis; type: functional, cell-based; conditions: T-24, 48 h
LNCaP [5] = test: Inhibition of Akt/mTOR pathway in human LNCAP cells assessed as reduction in AKT2 phosphorylation at S473/T308 residues at 50 uM incubated for 48 hrs by chemiluminescence reagent based autoradiography; type: cell-based
LNCaP [6] = test: Cytotoxicity against human LNCAP cells assessed as reduction in cell viability incubated for 48 hrs by xCELLigence RTCA analysis; type: functional, cell-based
LNCaP [7] = test: Inhibition of Akt/mTOR pathway in human LNCAP cells assessed as reduction in mTOR phosphorylation at […] residue at 50 uM incubated for 48 hrs by chemiluminescence reagent based autoradiography; type: cell-based
LNCaP [8] = test: Inhibition of Akt/mTOR pathway in human LNCAP cells assessed as reduction in AKT1 phosphorylation at S473/T308 residues at 50 uM incubated for 48 hrs by chemiluminescence reagent based autoradiography; type: cell-based
[9] = target: Focal adhesion kinase 1 (Homo sapiens) (UniProt Q05397); test: Inhibition of FAK phosphorylation at Y397 residue in human LNCAP cells at 50 uM incubated for 48 hrs by chemiluminescence reagent based autoradiography; type: cell-based
LNCaP [10] = test: Effect on total HSP60 level in human LNCAP cells at 50 uM incubated for 48 hrs by chemiluminescence reagent based autoradiography; type: ADME, cell-based
LNCaP [11] = test: Cytotoxicity against human LNCAP cells assessed as reduction in cell viability measured after 25 hrs by xCELLigence RTCA analysis; type: functional, cell-based
LNCaP [12] = test: Inhibition of Akt/mTOR pathway in human LNCAP cells assessed as reduction in AKT3 phosphorylation at S473/T308 residues at 50 uM incubated for 48 hrs by chemiluminescence reagent based autoradiography; type: cell-based
LNCaP [13] = test: Inhibition of cell migration of human LNCAP cells at 8.8 uM measured every 10 mins for 24 hrs by xCELLigence RTCA analysis; type: functional, cell-based
LNCaP [14] = test: Cytotoxicity against human LNCAP cells assessed as reduction in cell viability incubated for 12 hrs by xCELLigence RTCA analysis; type: functional, cell-based
LNCaP [15] = test: Inhibition of cell migration of human LNCAP cells at 8.9 uM measured every 10 mins for 24 hrs by xCELLigence RTCA analysis; type: functional, cell-based

Focal adhesion kinase 1 (Homo sapiens), sequence (Q05397 2-1052 limits assumed): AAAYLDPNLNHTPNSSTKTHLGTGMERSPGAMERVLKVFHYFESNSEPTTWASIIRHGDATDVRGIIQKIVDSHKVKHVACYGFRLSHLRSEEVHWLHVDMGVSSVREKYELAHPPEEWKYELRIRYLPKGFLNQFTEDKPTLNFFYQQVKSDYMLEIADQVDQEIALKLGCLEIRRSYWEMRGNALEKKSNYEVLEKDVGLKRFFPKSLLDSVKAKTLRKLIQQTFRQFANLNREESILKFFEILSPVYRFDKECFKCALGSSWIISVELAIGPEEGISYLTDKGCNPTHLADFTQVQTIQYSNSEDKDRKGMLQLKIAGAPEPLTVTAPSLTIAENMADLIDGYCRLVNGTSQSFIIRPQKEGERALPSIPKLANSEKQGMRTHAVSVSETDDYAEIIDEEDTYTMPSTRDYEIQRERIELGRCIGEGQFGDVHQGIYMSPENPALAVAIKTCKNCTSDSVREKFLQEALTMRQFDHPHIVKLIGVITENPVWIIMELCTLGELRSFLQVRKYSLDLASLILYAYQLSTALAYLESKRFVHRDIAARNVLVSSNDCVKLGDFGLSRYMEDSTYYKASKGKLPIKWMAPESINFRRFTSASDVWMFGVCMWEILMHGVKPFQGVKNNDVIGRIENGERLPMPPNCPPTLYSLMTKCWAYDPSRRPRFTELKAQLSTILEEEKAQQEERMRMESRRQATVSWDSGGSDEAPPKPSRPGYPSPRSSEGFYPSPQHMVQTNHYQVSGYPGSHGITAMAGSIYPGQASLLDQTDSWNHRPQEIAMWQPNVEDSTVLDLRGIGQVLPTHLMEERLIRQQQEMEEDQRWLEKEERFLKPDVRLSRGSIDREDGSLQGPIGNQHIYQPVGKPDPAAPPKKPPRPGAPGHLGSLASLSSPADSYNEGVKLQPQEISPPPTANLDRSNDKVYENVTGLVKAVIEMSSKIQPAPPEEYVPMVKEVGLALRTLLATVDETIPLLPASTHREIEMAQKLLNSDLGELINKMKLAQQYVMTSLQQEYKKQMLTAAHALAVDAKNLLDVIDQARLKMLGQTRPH
Proto-oncogene tyrosine-protein kinase Src (Homo sapiens), sequence (P12931 2-536 limits assumed): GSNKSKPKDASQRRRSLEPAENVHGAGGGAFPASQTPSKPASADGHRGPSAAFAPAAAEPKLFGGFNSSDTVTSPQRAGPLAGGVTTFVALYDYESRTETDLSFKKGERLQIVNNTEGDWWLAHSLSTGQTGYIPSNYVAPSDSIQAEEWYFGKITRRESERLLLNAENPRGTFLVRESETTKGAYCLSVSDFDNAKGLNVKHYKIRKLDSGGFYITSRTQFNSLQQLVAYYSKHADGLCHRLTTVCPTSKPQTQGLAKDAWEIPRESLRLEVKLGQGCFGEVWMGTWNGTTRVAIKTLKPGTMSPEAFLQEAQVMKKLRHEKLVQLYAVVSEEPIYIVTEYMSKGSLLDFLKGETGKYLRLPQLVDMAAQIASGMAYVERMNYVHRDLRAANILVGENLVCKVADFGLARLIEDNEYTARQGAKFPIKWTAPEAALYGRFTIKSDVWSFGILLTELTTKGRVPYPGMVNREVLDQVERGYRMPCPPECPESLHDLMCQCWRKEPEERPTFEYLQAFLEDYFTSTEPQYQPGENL

**Q.** What does the source list for `COc1c2c(c(C)c3c1C(=O)OC3)O[C@@]1(C)C[C@]3(O)OC[C@]4(C)O[C@@]5(OC)CC[C@](C)([C@H]1C2)[C@]43O5`?
**A.** Activity (LNCaP [1]): Active; IC50 (DU-145): 73 µM; inhibition [2]: Active; inhibition (LNCaP [3]): Active; inhibition (LNCaP [4]): Active; IC50 (T-24): 73 µM; inhibition (LNCaP [5]): Active; IC50 (LNCaP [6]): 27 µM; inhibition (LNCaP [7]): Active; inhibition (LNCaP [8]): Active; inhibition [9]: Active; Activity (LNCaP [10]): Toxic; inhibition (LNCaP [11]): Active; inhibition (LNCaP [12]): Active; inhibition (LNCaP [13]): Active

**Q.** What does the source list for `COc1c2c(c(C)c3c1C(=O)OC3)O[C@@]1(C)C[C@]3(O)OC[C@]4(C)O[C@@]5(OC)C[C@@H](OC(C)=O)[C@](C)([C@H]1C2)[C@]43O5`?
**A.** Activity (LNCaP [1]): Active; IC50 (DU-145): 53 µM; inhibition (LNCaP [14]): Dose-dependent effect; IC50 (T-24): 64 µM; inhibition (LNCaP [15]): Active; IC50 (LNCaP [6]): 20 µM
